Experimental data: ChEMBL document CHEMBL5523709, “Synthesis and Evaluation of diaryl ether modulators of the leukotriene A4 hydrolase aminopeptidase activity” (Eur J Med Chem, 2024)
The source made the active and inactive calls. No cut-off for these calls is given here.

How the values were obtained:
[1] = Metabolic stability in mouse liver microsomes assessed as depletion measured after 30 mins; assay type: ADME, Microsome; details: read-out: Drug degradation
[2] = molecular target: T1, Leukotriene A-4 hydrolase (Homo sapiens, UniProt P09960); experiment: Activation of human recombinant LTA4H aminopeptidase activity assessed as alanine-p-nitroanilide (Ala-pNA) hydrolysis by LCMS analysis
T1 sequence (P09960 whole entry): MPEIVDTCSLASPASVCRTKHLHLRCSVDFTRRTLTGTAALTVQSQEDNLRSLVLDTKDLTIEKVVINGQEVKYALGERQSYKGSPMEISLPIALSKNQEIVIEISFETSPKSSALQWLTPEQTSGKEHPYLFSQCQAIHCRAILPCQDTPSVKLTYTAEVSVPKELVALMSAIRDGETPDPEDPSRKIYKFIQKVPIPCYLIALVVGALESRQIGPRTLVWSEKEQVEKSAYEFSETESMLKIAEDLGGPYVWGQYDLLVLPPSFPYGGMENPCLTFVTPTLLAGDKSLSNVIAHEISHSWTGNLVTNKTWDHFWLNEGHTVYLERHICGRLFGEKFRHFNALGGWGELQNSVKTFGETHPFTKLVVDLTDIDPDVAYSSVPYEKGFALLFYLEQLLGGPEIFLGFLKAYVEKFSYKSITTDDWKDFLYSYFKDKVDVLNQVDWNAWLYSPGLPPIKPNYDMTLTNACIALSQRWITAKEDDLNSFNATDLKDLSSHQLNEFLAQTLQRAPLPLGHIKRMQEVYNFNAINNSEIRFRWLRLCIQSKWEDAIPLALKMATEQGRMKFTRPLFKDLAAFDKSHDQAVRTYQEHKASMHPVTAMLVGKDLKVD

[3] = molecular target: T2, Leukotriene A-4 hydrolase (Homo sapiens) (UniProt P09960); experiment: Activation of human recombinant LTA4H aminopeptidase activity assessed as alanine-p-nitroanilide (Ala-pNA) hydrolysis at 10 uM measured within 2 mins time window by LCMS analysis
T2 sequence (whole entry): T1 sequence (P09960 whole entry)

Mus musculus [4] = species: Mus musculus; experiment: Anti-inflammatory activity against 1000 CFU of Klebsiella pneumonia ATCC 43816 intranasal infected C57BL/6 mouse pneumonia model assessed as mouse survival treated a day after bacterial exposure measured upto 14 days; assay type: functional, organism-based; details: time <= 14.0 day
Mus musculus [5] = species: Mus musculus; experiment: Reduction in LTB4 level in 1000 CFU of Klebsiella pneumonia ATCC 43816 intranasal infected C57BL/6 mouse pneumonia model assessed as LTB4 level in bronchoalveolar lavage fluid (BALF) ELISA based by Epoxide hydrolase assay; assay type: functional
[6] = molecular target: T1, Leukotriene A-4 hydrolase; experiment: Inhibition of human recombinant LTA4H aminopeptidase activity assessed as alanine-p-nitroanilide (Ala-pNA) hydrolysis by LCMS analysis

Compound | metabolised at 0.5 h [1] [%] | EC50 [2] [nM] | other results
C[C@]12CC[C@H]3[C@@H](CCC4=CC(=O)CC[C@@]43C)[C@@H]1CC[C@@H]2O [TESTOSTERONE] | 98 |  | 
Nc1cc(-c2ccc(Oc3ccc(Cl)cc3)cc2)n[nH]1 |  | 120 | 
Nc1nc(-c2ccc(Cc3ccccc3)cc2)cs1 |  | 240 | 
Nc1cc[nH]n1 | 18 |  | Activity [3]: inactive; Activity (Mus musculus [4]): inactive; Activity (Mus musculus [5]): Active
Clc1ccc(Oc2ccc(N3CCNCC3)cc2)cc1 |  |  | IC50 [6]: 3330 nM
